Values of other authors as cited in patent publication US20050255049A1, “Formoterol and mometasone aerosol formulations” (priority 2002, published 2005).

Settings: stated in the background

density: 1.4 g cm^−3
SMILES: C[C@@H]1C[C@H]2[C@@H]3CCC4=CC(=O)C=C[C@]4(C)[C@@]3(Cl)[C@@H](O)C[C@]2(C)[C@@]1(OC(=O)c1ccco1)C(=O)CCl [mometasone furoate, (11 beta, 16alpha)-9,21-dichloro-17-[(2-furanylcarbonyl)oxy]-11-hydroxy-16-methylpregna-1,4-diene-3,20-dione]
